What all share (format): cell-based
Series [1] concerns Raji. The series is described as follows: Inhibition of TPA-induced EBV-early antigen activation in human Raji cells assessed as early antigen activation at 1000 mol ratio after 48 hrs relative to TPA. Further details: scale not given: the % may be the effect or the level left. As to conditions: human gammaherpesvirus 4.
For series [2], the system named is Raji. The series is described as follows: Inhibition of EBV-early antigen activation in human Raji cells assessed as early antigen activation at 1 uM ratio after 48 hrs. Further details: scale not given: the % may be the effect or the level left.
Series [3] in a line: Cytotoxicity against human Raji cells assessed as cell viability at 10 mol ratio after 48 hrs relative to TPA. As to conditions: read-out: Activity.
The subject of series [4] is Raji. The series is described as follows: Inhibition of TPA-induced EBV-early antigen activation in human Raji cells assessed as early antigen activation at 100 mol ratio after 48 hrs relative to TPA. As to conditions: human gammaherpesvirus 4.
The nature of series [5]: Cytotoxicity against human Raji cells assessed as cell viability at 1000 mol ratio after 48 hrs relative to TPA. As to conditions: read-out: Activity.
In series [6] the test system is Raji. In words: Inhibition of TPA-induced EBV-early antigen activation in human Raji cells assessed as early antigen activation at 5000 mol ratio after 48 hrs relative to TPA. On the set-up: scale not given: the % may be the effect or the level left. Particulars: human gammaherpesvirus 4.
Series [7] is described as follows: Cytotoxicity against human Raji cells assessed as cell viability at 5000 mol ratio after 48 hrs relative to TPA. As to conditions: read-out: Activity.
Series [8] has as its system Raji. The series is described as follows: Inhibition of TPA-induced EBV-early antigen activation in human Raji cells assessed as early antigen activation at 10 mol ratio after 48 hrs relative to TPA. Particulars: human gammaherpesvirus 4.
Series [9] in a line: Cytotoxicity against human Raji cells assessed as cell viability at 100 mol ratio after 48 hrs relative to TPA. Particulars: read-out: Activity.

Take `CC1(C)CC[C@]2(C(=O)O)CC[C@]3(C)C(=CC[C@@H]4[C@@]5(C)CC[C@H](O)C(C)(C)[C@@H]5CC[C@]43C)[C@@H]2C1` [OLEANOLIC_ACID]: the Activity in series [1] stood at 30%; in series [2], 2.3%; in series [6], 0%. In series [3], the viability at 48 h, 10 mol ratio relative to TPA was found to be 100%. Also, the EBV early antigen activation relative to TPA in [4] was found to be 80%. Moreover, the viability at 48 h, 1000 mol ratio relative to TPA in [5] was found to be 60%. For the same molecule, the viability at 48 h, 5000 mol ratio relative to TPA in [7] was 20%. Moreover, the EBV-EA activation relative to TPA in series [8] came to 100%. Further, in series [9], the viability at 48 h, 100 mol ratio relative to TPA was above 80%.

The values above are taken from ChEMBL document CHEMBL1150740, “Studies on inhibitors of skin-tumor promotion, I. Inhibitory effects of triterpenes from Euptelea polyandra on Epstein-Barr virus activation” (J Nat Prod, 1987).
